Results on six compounds are retold here after patent US20220110331A1, “COMPOSITION FOR PROMOTING GROWTH OF EFFECTIVE MICROORGANISM AND CONTROLLING PLANT DISEASE USING PREBIOTICS, AND USE THEREOF” (priority 2018, published 2022).

One assay has as its system gray mold. In words: Strawberry field test, incidence rate of gray mold. It counts as in vivo, Botrytis cinerea. As to conditions: foliar application of 2% amino acid; for incidence rate of gray mold: 8 treatments with interval of 2 weeks, non-treatment group 35%; for incidence rate of gray mold (in words): 8 treatments, decreased in order of glutamic acid, proline, tryptophan. As to the method: (§1) Specifically, the test was carried out with an interval of 2 weeks during the cultivation period of strawberry. Length of 5M was set as a single section and foliar application was performed for three sections. For each section, 100 strawberries were randomly selected and incidence rate of the disease was determined. As a treatment process, each amino acid was diluted to concentration of 2% in 15 liter distilled water, and the mixture (5 liter) was applied to each section. The treatment was carried out 8 times with an interval of 2 weeks.

Another assay concerns bloom blight. In words: Strawberry field test, incidence rate of bloom blight. Format: in vivo, Cladosporium cladosporioides. To be noted: foliar application of 2% amino acid, 8 treatments with interval of 2 weeks, non-treatment group up to 50%. The procedure: as §1
Assay [1] has as its system Streptomyces badius SP6C4 strain. Put plainly: Amino acid preference of effective microorganism on Biolog PM3B nitrogen source plate (redox dye colour). It counts as cell-based. As to conditions: 72 hours at 28° C., then dye and culture at 37° C. for 24 and 48 hours, naked eye. The procedure: Single colony of Streptomyces badius SP6C4 strain with deposit number of KCCM11703P was inoculated by streaking on MS medium (containing 20 g of mannitol, 20 g of soya, and 20 g of agar in 1 liter distilled water) and cultured for 7 days at 28° C. […] Thus-completed spore stock was diluted in sterile water, and, after adjusting the concentration to OD595 of 0.2±0.02, carrageenan stock (0.2% carrageenan and 50 mL distilled water) was prepared. The spore stock (1.5 mL) was admixed with 0.2% carrageenan stock (13.5 mL) and then the mixture (100 μl) was aliquoted onto a biolog plate (PM3B MICROPLATE™ Nitrogen Sources) followed by sealing the plate with a transparent film sheet. After 72 hours at 28° C., Redox dye mix MA (Biolog, Hayward, Calif.) was aliquoted to each well (10 μl per well) and sealed with a transparent film and a wrap to block the incorporation of CO2 from outside. Culture was carried out at 37° C. for 24 hours and 48 hours, respectively. […] Determination was made based on the assumption that stronger purple color corresponds to higher growth of the microorganism.

Assay [2] deals with Fusarium oxysporum. In words: Wilt disease control after coating tomato seeds with glutamic acid. It counts as in vivo. As to conditions: tomato seeds coated with 2% glutamic acid and 0.1% CMC, then pathogen; Day 3 (Early time) and Day 10 (Late time); pathogen only about 50% and 100%. As to the method:
By using a concentrate of glutamic acid (20% (w/v)) and a concentrate of CMC (carboxyl methyl cellulose) (1% (w/v)) as a spreader, a mixture solution was prepared such that they have concentration of 2% and 0.1%, respectively. Forty to fifty tomato seeds of which surfaces have been sterilized with 70% (v/v) ethanol and 1% (v/v) sodium hypochlorite were added to 1 mL of the mixture solution and dried for 12 hours in a sterile bench at room temperature condition. After that, the coated seeds were planted to a square pot (3 cm×3 cm), 1 to 2 seeds per pot. Fusarium oxysporum spores as wilt pathogen were added in an amount of 3 mL with concentration of 10^5×1.0 CFU/mL. The treatment group obtained after completing pathogen inoculation to the seeds was transferred to a plant growth chamber which is set at 28° C. for 16 hours of light period and 25° C. for 8 hours of dark period. On Day 3 (Early time) and Day 10 (Late time) after transfer to a plant growth chamber, the incidence rate of wilt disease was examined. As a control, a non-treatment group and a group treated only with the pathogen were examined, each repeated 10 times.

Assay [3] relates to Fusarium oxysporum. Put plainly: Wilt disease control after treating underground part of tomato plant with glutamic acid. Format: in vivo. To be noted: 2% glutamic acid solution 20 mL applied 2 times to tomato plant. The procedure:
To a tomato plant grown to have aboveground part of 8 to 10 cm, 2% glutamic acid solution was applied 2 times, in an amount of 20 mL with an interval of 5 days. […] A wound was created, by using a 5 mL tip, on the underground part of plant which has been treated twice with glutamic acid for 10 days, and then the spore suspension (10 mL) was applied to a pot with diameter of 9 cm. The plant inoculated with the pathogen was transferred to a plant growth chamber which is set at 28° C. for 16 hours of light period and 25° C. for 8 hours of dark period. Then, the incidence rate of disease was determined with an interval of 1 week. As a control, a group treated only with the pathogen and a plant not treated with any were tested, each repeated 5 times.

The test system of assay [4] is Streptomyces badius SP6C4 strain. Put plainly: Growth promotion of effective microorganism by amino acids (OD600). Format: cell-based. As to conditions: fifth day of culture, 10 μl of amino acids at 2% added, 28° C.; basal medium control OD600 0.5. The procedure:
To 10 μl of a spore stock of Streptomyces badius SP6C4 strain (10^5 cfu/mL), 80 μl of sterile water was added. After mixing with 10 μl of amino acids at concentration of 2%, the strain was cultured in a shaking incubator at a condition of 28° C. Growth of SP6C4 strain was examined by OD600 for 5 days with an interval of 24 hours.

For assay [5] the test system is unchanged. Put plainly: Maintenance of density of effective microorganism on strawberry flowers after amino acid treatment (qPCR of lanM gene). Format: in vivo. As to conditions: continuously maintained except the first treatment out of 8 treatments. The procedure:
To determine whether or not the density of effective microorganism is maintained even after a treatment of the amino acids, three strawberry flowers were collected, 3 times repeatedly, in each treatment period during which the test of inhibiting gray mold by the strawberry field test of Example 3 is carried out. After transfer to the lab under cold storage, 3 flowers were added to 30 mL of 1×PBS buffer and subjected to an ultrasonication treatment for 10 minutes. 3 mL of the supernatant was centrifuged for 10 minutes at a rate of 13,000 rpm, 1 mL of the resulting supernatant was discarded, and the pellet was dissolved in the remaining supernatant (2 mL). 500 μl of the mixture was admixed with 500 μl CTAB buffer followed by DNA purification. Each DNA was subjected to qPCR (quantitative polymerase chain reaction) by using lanM gene specific primers of Streptomyces badius SP6C4 strain (forward direction: 5′-gtacggatctgcaccacga-3′ (SEQ ID NO: 1), reverse direction: 5′-[…]-3′ (SEQ ID NO: 2)).

For the compound `NC(=O)C[C@H](N)C(=O)O` [asparagine, reference compound], the “incidence rate of gray mold” value with gray mold is given as “about 25%”. For the same compound, in the assay with bloom blight, the “incidence rate of bloom blight” value is given as “up to 40%”.
Take `C[C@H](N)C(=O)O` [alanine]: the “color change with Redox dye (stronger purple color corresponds to higher growth of the microorganism)” value (from here on “color change with Redox dye”) in assay [1] is “darkest purple color”.
As to `N[C@@H](Cc1c[nH]c2ccccc12)C(=O)O` [tryptophan], the “incidence rate of gray mold (in words)” value with gray mold is given as “incidence rate has decreased”.
`N=C(N)NCCC[C@H](N)C(=O)O` [arginine]: in assay [1], the “color change with Redox dye” value is “darkest purple color”.
As for `O=C(O)[C@@H]1CCCN1` [proline], the “incidence rate of gray mold (in words)” value in the assay on gray mold is on record as “incidence rate has decreased”.
Turning to `N[C@@H](CCC(=O)O)C(=O)O` [glutamic acid], the “incidence rate of wilt disease” value with Fusarium oxysporum [2] is “wilt disease does not occur”. Also, the “incidence rate of gray mold” value in the assay with gray mold is listed as “less than 15%”. Further, the “incidence rate of disease (wilt)” value is “no significant difference” in the assay with Fusarium oxysporum [3] (for 2 weeks after the initial pathogen treatment) and “less than 15%” in the assay on Fusarium oxysporum [3] (from the week 4, pathogen only 100%). The “OD600 (growth of SP6C4 strain)” value in assay [4] is reported as 1.8. For the same compound, in assay [5], the “microorganism concentration (SP6C4 on strawberry flowers)” value is ≥ 10^5 cfu/mL. In addition, the “color change with Redox dye” value in assay [1] is “darkest purple color”.
